Assay results taken from paper PMC12409219, “Binding kinetics, bias, receptor internalization and effects on insulin secretion in vitro and in vivo of a novel GLP‐1R/GIPR dual agonist, HISHS‐2001” (Diabetes, Obesity & Metabolism, 2025).

Key:
human GLP-1R [1] = target: T1, human GLP-1R (Homo sapiens, UniProt P43220); assay: cAMP assay in HEK293-SNAP-GLP-1R cells (HTRF); type: cell-based; settings: 30-min stimulation, n = 4, compared to native GLP-1(7-36)NH2
Procedure: HEK293 cells stably expressing human GLP‐1R or human GIPR, each self‐labelling protein tag (SNAP)‐tagged at their N‐termini (Cisbio), were cultured in Dulbecco's Modified Eagle's Medium (DMEM) medium (Gibco), 10% fetal bovine serum (FBS) and 1% penicillin/streptomycin.
HEK293‐SNAP‐GLP‐1R, HEK293‐SNAP‐GIPR or GLP‐1R‐β‐arrestin 2 cells were seeded overnight in 12‐well plates. On the day of the assay, cells were resuspended and dispensed into white, 96‐well plates containing the indicated concentration of agonist prepared in serum‐free medium containing 0.1% bovine serum albumin (BSA). After a 30‐min stimulation, cAMP detection reagents (cAMP dynamic kit, Cisbio) were added, and the plate was read 60 min later using an HTRF‐compatible plate reader. Data were analysed using three‐parameter logistic fitting (GraphPad Prism 9.0) and normalised to the maximal fitted response of the reference ligand (GLP‐1 or semaglutide) for presentation purposes.

human GLP-1R [2] = target: T1, human GLP-1R; assay: GLP-1R binding kinetics, TR-FRET competitive kinetics with exendin(9-39)-FITC; settings: calculated from K on and K off; HISHS-2001 versus tirzepatide
Procedure: HEK293‐SNAP‐GLP‐1R cells were seeded overnight in 12‐well plates. On the day of the assay, cells were labelled with 40 nM Lumi4‐Tb (Cisbio) in complete medium for 30 min. After washing, labelled cells were preincubated for 20 min in Hanks' Balanced Salt Solution (HBSS) supplemented with 0.1% BSA and a metabolic inhibitor cocktail (10 mM NaN3, 20 mM 2‐deoxyglucose) to inhibit GLP‐1R endocytosis that would otherwise influence binding assays. Ligand binding was then detected in real time using time‐resolved Förster resonance energy transfer (TR‐FRET) using a Flexstation 3 plate reader (Molecular Devices). […] Plate reader settings included 340 nm λexcitation, 520 nm (cut‐off 495 nm) and 620 nm (cut‐off 570 nm) λemission, 400 μs delay and 1500 μs integration time. Association and dissociation rate constants were calculated using the kinetics of competitive binding algorithm in GraphPad Prism 9.0.

in vivo = assay: in vivo; set-up: species or system mouse; settings: sc; for Tmax / half-life: male, CD-1, mouse; for stability in the circulation: mouse
Procedure: Ninety animals were procured from LAR. Animals were acclimatized for 1 day. On Day 0, each animal was weighed. […] Animals were injected subcutaneously at 1 mg/kg for the corresponding agonist (dose volume: 10 mL/kg) using 26½ gauge needles. At 1, 2, 4, 8, 12, 24, 48, 72, and 96 h, ~500 μL of blood was collected by retro‐orbital plexus puncture using capillary micro‐centrifuge tubes containing anticoagulant (15 μL 10% K2 EDTA). Plasma was separated from blood by centrifugation at ~3300 rpm for 10 min at 4°C. HISHS‐2001 concentrations were estimated using liquid chromatography with tandem mass spectrometry.

T1 sequence (P43220 24-463): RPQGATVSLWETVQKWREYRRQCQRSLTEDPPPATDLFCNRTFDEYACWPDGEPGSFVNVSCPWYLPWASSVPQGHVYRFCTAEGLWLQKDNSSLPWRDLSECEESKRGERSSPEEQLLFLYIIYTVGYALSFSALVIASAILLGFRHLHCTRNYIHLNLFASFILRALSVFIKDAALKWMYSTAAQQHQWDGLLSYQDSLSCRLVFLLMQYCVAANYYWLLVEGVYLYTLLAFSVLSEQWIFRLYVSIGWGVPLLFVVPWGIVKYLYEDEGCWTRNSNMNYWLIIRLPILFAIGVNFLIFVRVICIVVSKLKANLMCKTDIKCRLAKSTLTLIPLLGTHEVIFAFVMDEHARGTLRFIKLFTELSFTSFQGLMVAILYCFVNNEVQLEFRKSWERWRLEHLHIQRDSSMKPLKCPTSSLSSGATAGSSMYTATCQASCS

Row | SMILES | cAMP potency (pEC50) at the GLP-1R (human GLP-1R [1]) | calculated Kd at GLP-1R (human GLP-1R [2]) | Tmax (in vivo) | half-life (in vivo) | stability in the circulation (in vivo)
1 | CC[C@H](C)[C@H](NC(=O)[C@H](CC(C)C)NC(=O)[C@H](Cc1c[nH]c2ccccc12)NC(=O)[C@H](CCC(N)=O)NC(=O)[C@@H](NC(=O)[C@H](Cc1ccccc1)NC(=O)[C@H](C)NC(=O)[C@H](CCCCNC(=O)COCCOCCNC(=O)C(C)(C)NC(=O)CC[C@H](NC(=O)CCCCCCCCCCCCCCCCCCC(=O)O)C(=O)O)NC(=O)[C@H](CCC(N)=O)NC(=O)[C@H](C)NC(=O)[C@@H](NC(=O)[C@H](CCCCN)NC(=O)[C@H](CC(=O)O)NC(=O)[C@H](CC(C)C)NC(=O)C(C)(C)NC(=O)[C@@H](NC(=O)[C@H](CO)NC(=O)[C@H](Cc1ccc(O)cc1)NC(=O)[C@H](CC(=O)O)NC(=O)[C@H](CO)NC(=O)[C@@H](NC(=O)[C@H](Cc1ccccc1)NC(=O)[C@@H](NC(=O)CNC(=O)[C@H](CCC(=O)O)NC(=O)C(C)(C)NC(=O)[C@@H](N)Cc1ccc(O)cc1)[C@@H](C)O)[C@@H](C)O)[C@@H](C)CC)[C@@H](C)CC)C(C)C)C(=O)N[C@@H](C)C(=O)NCC(=O)NCC(=O)N1CCC[C@H]1C(=O)N[C@@H](CO)C(=O)N[C@@H](CO)C(=O)NCC(=O)N[C@@H](C)C(=O)N1CCC[C@H]1C(=O)N1CCC[C@H]1C(=O)N1CCC[C@H]1C(=O)N[C@@H](CO)C(N)=O [HISHS-2001] | significantly reduced potency | also lower | 8 h | 10.1 h | similar
2 | CC[C@H](C)[C@H](NC(=O)[C@H](CC(C)C)NC(=O)[C@H](Cc1c[nH]c2ccccc12)NC(=O)[C@H](CCC(N)=O)NC(=O)[C@@H](NC(=O)[C@H](Cc1ccccc1)NC(=O)[C@H](C)NC(=O)[C@H](CCCCNC(=O)COCCOCCNC(=O)COCCOCCNC(=O)CC[C@H](NC(=O)CCCCCCCCCCCCCCCCCCC(=O)O)C(=O)O)NC(=O)[C@H](CCC(N)=O)NC(=O)[C@H](C)NC(=O)[C@@H](NC(=O)[C@H](CCCCN)NC(=O)[C@H](CC(=O)O)NC(=O)[C@H](CC(C)C)NC(=O)C(C)(C)NC(=O)[C@@H](NC(=O)[C@H](CO)NC(=O)[C@H](Cc1ccc(O)cc1)NC(=O)[C@H](CC(=O)O)NC(=O)[C@H](CO)NC(=O)[C@@H](NC(=O)[C@H](Cc1ccccc1)NC(=O)[C@@H](NC(=O)CNC(=O)[C@H](CCC(=O)O)NC(=O)C(C)(C)NC(=O)[C@@H](N)Cc1ccc(O)cc1)[C@@H](C)O)[C@@H](C)O)[C@@H](C)CC)[C@@H](C)CC)C(C)C)C(=O)N[C@@H](C)C(=O)NCC(=O)NCC(=O)N1CCC[C@H]1C(=O)N[C@@H](CO)C(=O)N[C@@H](CO)C(=O)NCC(=O)N[C@@H](C)C(=O)N1CCC[C@H]1C(=O)N1CCC[C@H]1C(=O)N1CCC[C@H]1C(=O)N[C@@H](CO)C(N)=O [tirzepatide, reference compound] |  |  | 8 h | 8.78 h | similar
